Source: PMC11478212, “Antitumoral and Antiproliferative Potential of Synthetic Derivatives of Scorpion Peptide IsCT1 in an Oral Cavity Squamous Carcinoma Model” (Molecules, 2024)

Columns and labels:
Assay type in all cases: cell-based
[1] = tested on: SCC-25 tumor cells; assay: Cell cycle phase and DNA fragmentation analysis (flow cytometry); conditions: 24 h, IsCT-P and AC-AFPK-IsCT1 at IC50, others 100 µM
Experimental: Figure 3 Analysis of cell cycle phases following a 24 h treatment with synthetic analogs of IsCT1 peptides. The indicated cells were treated at the IC50 values obtained for the IsCT-P and AC-AFPK-IsCT1 peptides and at a concentration of 100 µM for the other peptides. (a) Representative histograms of cell distribution across cell cycle phases; (b) bar graph showing the correlation of the effect on cell cycle and fragmented DNA, expressed as the mean ± SD of three independent SCC-9 tumor cell experiments; (c) bar graph showing the correlation of the effect on cell cycle and fragmented DNA, expressed as the mean ± SD of three independent experiments on SCC-25 tumor cells; (d) bar graph showing the correlation of the effect on cell cycle and fragmented DNA, expressed as the mean ± SD of three independent experiments of normal FN1 cells; (e) bar graph showing the correlation of the effect on cell cycle and fragmented DNA, expressed as the mean ± SD of three independent experiments of normal J774 cells. Statistical differences were obtained using ANOVA and Tukey–Kramer multiple comparison tests. * p < 0.05, ** p < 0.01, and *** p < 0.001 denote significance. ns = not significant.
Tumor (SSC-9 and SSC-25) and normal cells (FN1 and J-774) were subjected to treatment for 24 h at the peptides’ IC50 concentrations. Treated and control cells were trypsinized and centrifuged at 1200 rpm for 5 min. The resulting pellet was resuspended in 1 mL of cold buffer, followed by the addition of 3 mL of absolute ethanol. Samples were stored at −20 °C for 24 h. The samples were then centrifuged at 1500 rpm for 10 min and resuspended in 200 μL of FACS buffer containing 0.1% Triton X-100 (Sigma-Aldrich, St. Louis, MO, USA), 50 μg/mL propidium iodide (Sigma-Aldrich), and 1 µL of RNAse (200×). This mixture was kept at room temperature and protected from light for 30 min. The samples were then transferred to cytometry tubes and analyzed using a FACScanto flow cytometer (BD) with 10,000 events, and histograms were acquired and analyzed using ModFit LT 5.0 software.

[2] = tested on: SCC-25 tumor cells; assay: Mitochondrial membrane electrical potential (ΔΨm) by flow cytometry; conditions: 24 h, IsCT-P and AC-AFPK-IsCT1 at IC50, others 100 µM, MitoRed, mean ± SD of three independent experiments
Experimental: (§1) Figure 4 Analysis of mitochondrial electrical potential (ΔΨm) using flow cytometry following a 24 h treatment with synthetic analogs of IsCT1 peptides. The indicated cells were treated at the IC50 values obtained for the IsCT-P and AC-AFPK-IsCT1 peptides and at a concentration of 100 µM for the other peptides. (a) Representative histograms of cell distribution according to ΔΨm; (b) bar graph showing ΔΨm expressed as the mean ± SD of three independent experiments of SCC-9 tumor cells; (c) bar graph showing ΔΨm expressed as the mean ± SD of three independent experiments of SCC-25 tumor cells; (d) bar graph showing ΔΨm expressed as the mean ± SD of three independent experiments of normal FN1 cells; (e) bar graph showing ΔΨm expressed as the mean ± SD of three independent experiments of normal J774 cells. Statistical differences were obtained using ANOVA and Tukey–Kramer multiple comparison tests. * p < 0.05, ** p < 0.01, and *** p < 0.001 denote significance. ns = not significant.
(§2) Tumor (SSC-9 and SSC-25) and normal cells (FN1 and J-774) were subjected to treatment for a period of 24 h at the peptides’ IC50 concentrations. After treatment, the cells were trypsinized, centrifuged at 1200 rpm for 5 min, the supernatant was discarded, and the cells were resuspended in complete medium containing MitoRed™ (Sigma-Aldrich, USA) (200 nM/L). Subsequently, the samples were incubated in an incubator at 37 °C with 5% CO2 for 30 min. The tubes were then centrifuged, the supernatant was discarded, and the pellet was resuspended in 200 μL of FACS buffer. Readings were performed using a FACScanto flow cytometer (BD) with 10,000 events, and histograms were acquired and analyzed using FCS Express software 2.0.

[3] = tested on: SCC-9 tumor cells; assay: as above; conditions: 24 h, IsCT-P and AC-AFPK-IsCT1 at IC50, others 100 µM, MitoRed, mean ± SD of three independent experiments
Experimental: as §1, §2

[4] = tested on: SCC-25 tumor cells; assay: CFSE-DA proliferation assay (flow cytometry); conditions: 24 h, IsCT-P and AC-AFPK-IsCT1 at IC50, other peptides at 100 µM, mean ± SD of three independent experiments
Experimental: (§3) Figure 2 Assessment of the cellular proliferative index was conducted using flow cytometry following a 24 h treatment with synthetic analogs of the IsCT1 peptide. The treatments were performed using the IC50 values obtained for the IsCT-P and AC-AFPK-IsCT1 peptides and at a concentration of 100 µM for the other peptides. (a) Representative histograms of the proliferative index were analyzed using WinMDI 5.0 software. Each color in the histogram represents a new cell population. (b) Bar graphs represent the mean ± SD of the proliferative index for SCC-9 tumor cells derived from three independent experiments. (c) Bar graphs display the mean ± SD of the proliferative index for SCC-25 tumor cells based on three independent experiments. (d) Bar graphs represent the mean ± SD of the proliferative index for normal FN1 cells from three independent experiments. (e) Bar graphs illustrate the mean ± SD of the proliferative index for normal J774 cells from three independent experiments. Statistical differences were determined using ANOVA and Tukey–Kramer multiple comparison tests. Significance levels are indicated as * p < 0.05, ** p < 0.01, and *** p < 0.001, with ‘ns’ denoting not significant.
(§4) Tumor (SSC-9 and SSC-25) and normal cells (FN1 and J-774) were plated in 24-well plates at a density of 10^5 cells/mL for 24 h. The treated and control groups were incubated with the carboxyfluorescein marker (CFSE-DA Thermo Fisher (Waltham, MA, USA), KITC34571). CFSE-DA was diluted in PBS + 0.1% human albumin and added to the cell-containing medium. After 24 h of treatment, the cells were trypsinized, transferred to a conical tube, and centrifuged at 1500 rpm for 5 min. The supernatant was discarded and the pellet was resuspended in 1 mL of 4% paraformaldehyde in PBS for 30 min. The cells were then centrifuged, the supernatant was discarded, and the pellet was resuspended in 200 μL of FACS buffer. Readings were performed on a FACScanto flow cytometer (BD, Franklin Lakes, NJ, USA) with the number of events set to 10,000 events, and histograms were acquired and analyzed using ModFit LT 5.0 software.

[5] = tested on: SCC-9 tumor cells; assay: CFSE-DA proliferation assay (flow cytometry); conditions: 24 h, IsCT-P and AC-AFPK-IsCT1 at IC50, other peptides at 100 µM, mean ± SD of three independent experiments
Experimental: as §3, §4

Row | Substance | fragmented DNA [1] [%] | decrease in ΔΨm [2] [%] | decrease in ΔΨm [3] [%] | decrease in the proliferative index [4] [%] | reduction in the proliferative index [5] [%]
1 | Ac-ALGKFWPKIKSLF-NH2 [AC-AFPK-IsCT1] | 16.5 | 31.5 ± 5.4 | 16.3 ± 2.7 | 40.9 ± 2.5 | 61.6 ± 1.7
2 | H-ILKKIWKPIKKLF-NH2 [IsCT-P] | 32.4 | 44.4 ± 4.8 | 21.2 ± 5.1 | 61.1 ± 2.8 | 61.8 ± 8.7
